Molecules are shown by their SMILES. Active and inactive are the calls of the source. The rule behind the calls is not given here.

This is an account of results in ChEMBL document CHEMBL5390307, “Sila-CBD Derivatives as Inhibitors of Heme-Induced NLRP3 Inflammasome: Application in Hemolytic Diseases” (ACS Med Chem Lett, 2023).

One series concerns J774.A1. The experiment in a line: Cytotoxicity against mouse J774.A1 cells assessed as reduction in cell viability at 10 uM incubated for 24 hrs by MTT assay. Format: toxicity, cell-based. The settings on record: j774.a1, 24 h.
In series [1] the target is NACHT, LRR and PYD domains-containing protein 3 (Mus musculus) (UniProt Q8R4B8). The experiment in a line: Inhibition of NLRP3 inflammasome in mouse J774.A1 cells assessed as reduction in IL-6 in presence of LPS at 10 uM pretreated for 1 hr followed by LPS stimulation measured after 24 hrs by ELISA method. Format: cell-based. The settings on record: time 25.0 hrs.
Series [2] has the same target. The experiment in a line: Inhibition of NLRP3 inflammasome in mouse J774.A1 cells assessed as reduction in TNF-alpha in presence of LPS at 0.1 to 1 uM pretreated for 1 hr followed by LPS stimulation measured after 24 hrs by ELISA method. The class given is cell-based. The settings on record: dose 0.1-1 µM, time 25.0 hrs.
Series [3] has as its target NACHT, LRR and PYD domains-containing protein 3 (Homo sapiens) (UniProt Q96P20). The experiment in a line: Inhibition of NLRP3 mediated in HEME-induced inflammasome in human PMA differentiated THP-1 cells assessed as reduction in IL-1beta level in presence of LPS at 10 uM pretreated for 1 hr followed by hemin addition measured after 1 hrs by ELISA method. Format: cell-based. The settings on record: time 2.0 hrs.

The target is the same in series [4]. As to the kind of experiment: Inhibition of NLRP3 mediated in HEME-induced inflammasome in human PMA differentiated THP-1 cells assessed as reduction in IL-1beta level in presence of LPS at 1 uM pretreated for 1 hr followed by hemin addition measured after 1 hrs by ELISA method. Format: cell-based. The settings on record: time 2.0 hrs.
Series [5] has as its target NACHT, LRR and PYD domains-containing protein 3 (Mus musculus) (UniProt Q8R4B8). The experiment in a line: Inhibition of NLRP3 inflammasome in mouse J774.A1 cells assessed as reduction in IL-6 in presence of LPS at 0.1 to 1 uM pretreated for 1 hr followed by LPS stimulation measured after 24 hrs by ELISA method. The class given is cell-based. The settings on record: dose 0.1-1 µM, time 25.0 hrs.

Series [6] in a line: Metabolic stability in mouse liver microsomes assessed as drug degradation measured after 5 mins in absence of NADPH by single ion monitoring mode based LC-MS method relative to control. Format: ADME, Microsome. The settings on record: read-out: Drug degradation.
A short description of series [7]: Metabolic stability in mouse liver microsomes in presence of NADPH measured after 5 mins by single ion monitoring mode based LC-MS method. The class given is ADME, Microsome.
In series [8] the target is NACHT, LRR and PYD domains-containing protein 3 (Homo sapiens) (UniProt Q96P20). As to the kind of experiment: Inhibition of NLRP3 mediated in HEME-induced inflammasome in human PMA differentiated THP-1 cells assessed as reduction in IL-1beta level in presence of LPS at 0.1 to 10 uM pretreated for 1 hr followed by hemin addition measured after 1 hrs by ELISA method. The class given is cell-based. The settings on record: dose 0.1-10 µM, time 2.0 hrs.

The target is the same in series [9]. As to the kind of experiment: Inhibition of NLRP3 mediated in HEME-induced inflammasome in human PMA differentiated THP-1 cells assessed as reduction in IL-1beta level in presence of LPS at 10 uM pretreated for 1 hr followed by hemin addition measured after 1 hrs by ELISA method relative to control. Format: cell-based. The following applies: time 2.0 hrs.
Series [10] deals with Mus musculus. The experiment in a line: Antiinflammatory activity against LPS/HEME-induced Balb/C mouse model assessed as reduction of IL-1 beta secretion at 1 mg/kg, ip administered for 30 mins followed by LPS for 4 hrs incubation and later stimulated with HEME for 1 hrs by ELISA. The settings on record: time 330.0 min. The class given is functional, organism-based.
The target in series [11] is NACHT, LRR and PYD domains-containing protein 3 (Mus musculus) (UniProt Q8R4B8). The experiment in a line: Inhibition of NLRP3 inflammasome in mouse J774.A1 cells assessed as reduction in TNF-alpha in presence of LPS at 10 uM pretreated for 1 hr followed by LPS stimulation measured after 24 hrs by ELISA method. The class given is cell-based. The settings on record: time 25.0 hrs.

Series [12] relates to Mus musculus. As to the kind of experiment: Antiinflammatory activity against LPS/HEME-induced Balb/C mouse model assessed as reduction of IL-1 beta secretion at 30 mg/kg, ip administered for 30 mins followed by LPS for 4 hrs incubation and later stimulated with HEME for 1 hrs by ELISA. The class given is functional, organism-based. The following applies: time 330.0 min.
Series [13] deals with Mus musculus. The experiment in a line: Antiinflammatory activity against LPS/HEME-induced Balb/C mouse model assessed as reduction of IL-1 beta secretion at 10 mg/kg, ip administered for 30 mins followed by LPS for 4 hrs incubation and later stimulated with HEME for 1 hrs by ELISA. Format: functional, organism-based. The following applies: time 330.0 min.
Series [14] has as its target NACHT, LRR and PYD domains-containing protein 3 (Homo sapiens) (UniProt Q96P20). As to the kind of experiment: Inhibition of NLRP3 mediated in HEME-induced inflammasome in human PMA differentiated THP-1 cells assessed as reduction in IL-1beta level in presence of LPS at 0.1 uM pretreated for 1 hr followed by hemin addition measured after 1 hrs by ELISA method relative to control. Format: cell-based. The following applies: time 2.0 hrs.

Series [15] can be described thus: Metabolic stability in mouse liver microsomes assessed as drug degradation in the presence of NADPH measured after 5 mins by LC-MS method. Format: ADME, Microsome.
The target in series [16] is NACHT, LRR and PYD domains-containing protein 3 (Homo sapiens) (UniProt Q96P20). As to the kind of experiment: Inhibition of NLRP3 mediated in HEME-induced inflammasome in human PMA differentiated THP-1 cells assessed as reduction in IL-1beta level in presence of LPS at 1 uM pretreated for 1 hr followed by hemin addition measured after 1 hrs by ELISA method relative to control. Format: cell-based. The following applies: time 2.0 hrs.

Series [17] can be described thus: Metabolic stability in human liver microsomes assessed as drug degradation measured after 5 mins by LC-MS method relative to control. Format: ADME, Microsome. The settings on record: read-out: Drug degradation.

NACHT, LRR and PYD domains-containing protein 3 (Mus musculus), sequence (Q8R4B8 whole entry, the tested form may be a part): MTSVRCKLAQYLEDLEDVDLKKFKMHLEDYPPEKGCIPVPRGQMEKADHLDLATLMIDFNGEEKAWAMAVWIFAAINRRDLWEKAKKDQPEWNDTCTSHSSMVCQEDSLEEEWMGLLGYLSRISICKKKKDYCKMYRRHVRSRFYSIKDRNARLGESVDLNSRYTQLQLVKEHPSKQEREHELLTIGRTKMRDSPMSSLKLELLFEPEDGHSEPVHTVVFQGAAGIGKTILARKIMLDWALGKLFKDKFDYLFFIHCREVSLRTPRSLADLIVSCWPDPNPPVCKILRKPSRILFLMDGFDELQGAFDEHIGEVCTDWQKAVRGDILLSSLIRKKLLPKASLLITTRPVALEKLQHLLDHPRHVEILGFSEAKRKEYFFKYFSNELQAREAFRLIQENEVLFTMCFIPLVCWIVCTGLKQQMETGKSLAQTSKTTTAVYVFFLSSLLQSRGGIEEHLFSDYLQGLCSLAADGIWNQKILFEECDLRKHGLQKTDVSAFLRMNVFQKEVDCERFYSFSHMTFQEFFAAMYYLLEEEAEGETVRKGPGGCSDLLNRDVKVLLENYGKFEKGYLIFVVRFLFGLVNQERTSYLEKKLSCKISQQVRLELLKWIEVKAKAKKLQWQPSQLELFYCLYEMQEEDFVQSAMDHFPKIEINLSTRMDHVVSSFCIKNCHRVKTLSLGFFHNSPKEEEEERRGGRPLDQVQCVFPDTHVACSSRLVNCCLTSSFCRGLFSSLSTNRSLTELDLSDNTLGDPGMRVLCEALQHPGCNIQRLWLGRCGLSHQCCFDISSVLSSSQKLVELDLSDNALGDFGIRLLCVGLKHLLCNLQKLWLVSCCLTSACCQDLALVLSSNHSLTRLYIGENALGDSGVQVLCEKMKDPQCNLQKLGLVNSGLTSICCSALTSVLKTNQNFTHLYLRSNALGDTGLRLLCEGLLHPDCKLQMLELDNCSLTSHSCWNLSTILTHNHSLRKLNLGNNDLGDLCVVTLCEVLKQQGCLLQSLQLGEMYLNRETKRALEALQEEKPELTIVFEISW
NACHT, LRR and PYD domains-containing protein 3 (Homo sapiens), sequence (Q96P20 whole entry, the tested form may be a part): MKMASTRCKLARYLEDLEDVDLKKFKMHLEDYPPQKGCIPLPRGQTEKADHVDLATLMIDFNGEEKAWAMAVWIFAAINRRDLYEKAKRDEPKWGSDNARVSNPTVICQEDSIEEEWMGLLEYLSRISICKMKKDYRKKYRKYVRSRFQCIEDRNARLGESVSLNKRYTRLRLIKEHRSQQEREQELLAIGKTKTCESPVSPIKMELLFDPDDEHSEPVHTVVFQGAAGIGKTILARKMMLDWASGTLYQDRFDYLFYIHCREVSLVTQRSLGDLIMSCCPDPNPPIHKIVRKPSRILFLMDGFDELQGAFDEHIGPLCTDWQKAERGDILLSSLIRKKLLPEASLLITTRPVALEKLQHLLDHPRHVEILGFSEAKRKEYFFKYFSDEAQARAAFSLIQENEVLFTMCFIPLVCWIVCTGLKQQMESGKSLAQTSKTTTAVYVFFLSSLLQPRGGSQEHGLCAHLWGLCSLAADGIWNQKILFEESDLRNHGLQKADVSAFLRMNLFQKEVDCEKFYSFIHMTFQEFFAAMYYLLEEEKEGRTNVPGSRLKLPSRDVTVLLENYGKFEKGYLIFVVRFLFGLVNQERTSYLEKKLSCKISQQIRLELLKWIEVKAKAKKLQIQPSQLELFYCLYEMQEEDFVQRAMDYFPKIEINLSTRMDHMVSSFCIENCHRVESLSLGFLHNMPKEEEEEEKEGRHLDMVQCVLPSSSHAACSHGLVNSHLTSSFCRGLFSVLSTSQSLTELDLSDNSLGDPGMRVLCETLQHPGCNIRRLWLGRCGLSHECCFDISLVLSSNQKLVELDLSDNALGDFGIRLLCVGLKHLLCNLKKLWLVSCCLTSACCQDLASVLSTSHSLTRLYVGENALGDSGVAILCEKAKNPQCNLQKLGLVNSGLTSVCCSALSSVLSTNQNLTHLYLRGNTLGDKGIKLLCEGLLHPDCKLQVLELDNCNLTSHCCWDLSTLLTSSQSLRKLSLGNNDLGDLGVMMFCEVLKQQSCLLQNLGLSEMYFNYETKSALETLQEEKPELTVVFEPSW

For `CC(C)=CCC/C(C)=C/Cc1c(O)cc([Si](C)(C)C)cc1O`, the Activity entry in the series with J774.A1 was “Non-Toxic”.

For `CCCC[Si](C)(C)C1=CC(=O)C(C/C=C(\C)CCC=C(C)C)=C(O)C1=O`, the inhibition entry in [1], in series [3] and in series [4] was “Active” each time. In addition, the inhibition result in series [2] and in series [5] was “inactive” in each case. The Activity result in the series on J774.A1 was “Non-Toxic”.

For `C=C(C)[C@@H]1CCC(C)=C[C@H]1c1c(O)cc([Si](C)(C)CCCC)cc1O`, in the series with J774.A1, the Activity result is listed as “Non-Toxic”.

Regarding `C=C(C)[C@@H]1CCC(C)=C[C@H]1C1=C(O)C(=O)C(CCCCC)=CC1=O`, in series [6], the metabolised at 5 min is below 20%. Besides, the Stability entry in [7] was “Stable”. For the same molecule, the inhibition result in series [8] was “inactive”.

In the case of `CCCCCC[Si](C)(C)c1cc(O)c(C/C=C(\C)CCC=C(C)C)c(O)c1`, the inhibition in [9] was determined as 60%. In addition, in the series with J774.A1, the Activity result is “Non-Toxic”. In addition, the inhibition result in series [4] is “Active”.

With `CCCCCc1cc(O)c(C/C=C(\C)CCC=C(C)C)c(O)c1`, the inhibition result in series [4] was “Active”.

Regarding `CCCCCC[Si](C)(C)C1=CC(=O)C(C/C=C(\C)CCC=C(C)C)=C(O)C1=O`, the inhibition result in [1], in series [3] and in series [4] was “Active” in each case. Besides, the inhibition result in series [2] and in series [5] was “inactive” in each case. The Activity result in the series on J774.A1 was “Non-Toxic”.

As for `CCCCCC1=CC(=O)C(C/C=C(\C)CCC=C(C)C)=C(O)C1=O`, the inhibition entry in [8] is “inactive”.

Take `COc1cc2c(c(OC)c1OC)-c1ccc(OC)c(=O)cc1[C@@H](NC(C)=O)CC2`: in the series on Mus musculus [10], the result was Active.

`CC(C)=CCC/C(C)=C/CC1=C(O)C(=O)C([Si](C)(C)C)=CC1=O`: the inhibition result in series [2] and in [5] was “inactive” each time. Moreover, the Activity entry in the series with J774.A1 was “Non-Toxic”. Moreover, the inhibition entry in [3], in series [4] and in series [11] was “Active” in each case.

As to `C=C(C)[C@@H]1CCC(C)=C[C@H]1C1=C(O)C(=O)C([Si](C)(C)C)=CC1=O`, the outcome with Mus musculus [12] and in the series with Mus musculus [13] was Active. For the same molecule, the inhibition result in [2], in [5] and in [11] was “Active” each time. Further, the inhibition was above 20% in [14], above 80% in [9] and above 50% in [16]. In [15], the Drug degradation result was “Stable”. Besides, the Activity entry with J774.A1 is “Non-Toxic”. Also, the metabolised at 5 min in [17] was 10%.

Regarding `C=C(C)[C@@H]1CCC(C)=C[C@H]1c1c(O)cc([Si](C)(C)CCCCCC)cc1O`, in the series with J774.A1, the Activity entry is “Non-Toxic”.

Take `CCCC[Si](C)(C)c1cc(O)c(C/C=C(\C)CCC=C(C)C)c(O)c1`: the Activity result with J774.A1 is given as “Non-Toxic”.
